In patent publication US20260137697A1, “THIAZOLO[5,4-D]PYRIMIDINE COMPOUNDS, COMPOSITIONS COMPRISING THEM AND USES THEREOF” (University de Montreal, priority 2022, published 2026):
pIC50: −log10 of the molar value.

How the values were obtained:
pERK, HCT116 cells = test: Phospho-ERK inhibition, AlphaLISA p-ERK 1/2, HCT-116; assay type: cell-based, human; details: for pIC50: HCT116 cells (KRAS G13D), 1 h treatment; for HCT116 pERK (Ymin %): lowest % inhibition value of the pERK IC50 curve, above −20% = no paradoxical induction
Experimental: All cancer cell lines (A375, A101D, A2058, RKO, HT29 SK-MEL 30, IPC298, HepG2, HCT-116, Lovo, SW620, SW480, NCI-H358, NCI-H2122, Calu-6, NCIH2087, NCIH1755, NCIH1666 and Mewo) were obtained from ATCC and cultured in RPM1-1640 medium (Gibco) supplemented with 5% heat inactivated fetal bovine serum (FBS, Wisent) at 37° C. under 5% CO2. Cells were maintained in T175 flasks (Greiner). They were passaged by removing the culture medium, washing once in 10 mL of room temperature Phosphate Buffered Saline (PBS; Wisent) and incubating at 37° C. with 2 mL of 0.05% Trypsin (Thermo-Fisher). Trypsin was then inactivated by adding complete growth medium and the cells were then replated in a T175 culture dish at the appropriate dilution. All cell lines were routinely tested for mycoplasma contamination. Tissue type and mutational status of each cell line can be found in Table B.
(c) Measurement of Phospho-ERK Inhibition in Cultivated Human Cancer Cell Lines by the AlphaLISA® SureFire® Ultra™ p-ERK 1/2 (Thr2O2/Tyr204)
AlphaLISA® SureFire® Ultra™ p-ERK 1/2 (Thr202/Tyr204) analysis was conducted on cells plated in 100 μL of complete RPMI-1640 growth medium in 96-well flat-bottomed transparent dishes (Costar) at a density indicated in Table C. Cells were maintained overnight at 37° C. under 5% CO2 before treatment with compounds' dilution series for one hour. The cell density in cells/cm^2 corresponds to cell number divided by the area of one well of a 96-well plate (0.143 cm^2).
In a dilution series 100 μL/well of test substance dilution prepared in complete RPMI-1640 growth media was added to the cells. The dilution series is selected so that ten concentrations cover a range from 10 μM to 0.33 nM. If necessary, the initial concentration of 10 μM is increased to 100 μM or lowered to 1 μM (as in the case of A375 and H1666 cells, which are generally more sensitive to the compounds) and further dilution is carried out accordingly. The final concentration of DMSO in the assay is set at 0.5%.
After treatment, media was removed, and cells were lysed in 50 μL of 1× AlphaScreen Ultra Lysis Buffer (Perkin Elmer). The AlphaLISA® SureFire® Ultra™ p-ERK 1/2 (Thr202/Tyr204) (PerkinElmer) reactions were performed with 5 μL of cell lysate according to the manufacturer's specifications in 384-well proxyplates (Perkin Elmer) followed by overnight incubation of the reactions at room temperature in a humidified chamber. After completion of the reactions, the signals were recorded on an EnVision plate reader (Perkin Elmer) using built in AlphaLISA® settings.
The effect of each compound dilution on the pERK signal was expressed in % inhibition and calculated as follows. An internal 100% inhibition control (1 μM trametinib, cat. No. HY-10999; MedChem Express; CAS No. 871700-17-3) was included in each plate and used as a measure of pERK background. First, the value obtained for trametinib was subtracted from each data point. The average of DMSO (vehicle) controls (set as 0% inhibition) was established and used to calculate % inhibition:
The ability of each compound to inhibit pERK signal was expressed as an IC50 value obtained by plotting the inhibition values for each data point of a dilution series and fitting the obtained curves using a log(agonist) versus response—variable slope (four parameters) function using GraphPadPrism (V7.0) or Dotmatics Screening Ultra platform.
When present, paradoxical pERK induction is inferred from the negative % inhibition values observed in the pERK IC50 curves of a compound.

CRAF = biological target: T1, CRAF (Homo sapiens, UniProt P04049); test: CRAF kinase activity assay (ADP-Glo); assay type: biochemical; details: 10 μM ATP, kinase-dead MEK1 substrate
T1 construct: fused on or other part: GST tag (N-terminal according to the vendor's product)
T1 sequence (P04049 whole entry Y340E/Y341E, form open, the tested form may be a part): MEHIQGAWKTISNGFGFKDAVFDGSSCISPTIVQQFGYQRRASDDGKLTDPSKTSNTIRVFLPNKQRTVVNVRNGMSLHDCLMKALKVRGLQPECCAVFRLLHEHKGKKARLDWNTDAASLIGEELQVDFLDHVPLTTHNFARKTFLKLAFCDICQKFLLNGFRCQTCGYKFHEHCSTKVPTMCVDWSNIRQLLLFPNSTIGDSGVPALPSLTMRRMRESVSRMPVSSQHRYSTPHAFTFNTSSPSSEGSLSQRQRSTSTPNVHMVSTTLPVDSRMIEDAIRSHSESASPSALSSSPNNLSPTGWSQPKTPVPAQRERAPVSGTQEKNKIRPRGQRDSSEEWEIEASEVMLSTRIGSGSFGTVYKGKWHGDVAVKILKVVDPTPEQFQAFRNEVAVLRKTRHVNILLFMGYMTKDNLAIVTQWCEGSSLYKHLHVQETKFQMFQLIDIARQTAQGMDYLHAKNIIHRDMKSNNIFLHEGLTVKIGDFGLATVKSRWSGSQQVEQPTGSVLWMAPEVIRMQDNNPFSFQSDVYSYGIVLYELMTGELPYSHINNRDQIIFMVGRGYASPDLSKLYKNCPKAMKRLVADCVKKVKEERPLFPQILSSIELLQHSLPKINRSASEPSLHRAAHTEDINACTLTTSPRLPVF
Experimental: (§1) Compound preparation: solid samples of each substance in 1dram vials were suspended in DMSO (Fisher Scientific) at a stock concentration of 20 mM. Stocks were kept at −20° C. and protected from light. If solubility of the compound at 20 mM appeared to be an issue, the initial concentration of the DMSO stock was changed to 10 mM or 5 mM.
(§2) In vitro enzymatic reactions were used for evaluating compounds intrinsic activity against BRAF, CRAF and ARAF. For BRAF and CRAF, 0.375 nM of purified GST-tagged kinases (cat. No. B4062-10UG and cat. No. R1656-10UG respectively from Millipore Sigma) were incubated with 75 nM of kinase-dead MEK1 substrate (cat. No. 40075; BPS Bioscience) in the presence of 10 μM of Ultrapure ATP (cat. No. V9102; Promega; part V915A) with and without the test compound in a buffer containing 50 mM HEPES pH 7.5, 10 mM MgCl2, 1 mM EDTA, 0.01% Brij-35 and 2 mM DTT. Separate reactions were performed with the MEK1 substrate and ATP as a blank control. ARAF kinase reactions were rigorously the same with the exception that kinase concentration was raised to 3.75 nM (cat. No. 1768-0000-1; Reaction Biology).
(§3) For compound treatment, 5 μL/well of test substance solution are placed in a 384-well proxyplate (Perkin Elmer) and mixed with 2× concentrated kinase reactions. The dilution series is selected so that nine concentrations cover a range from 100 nM to 0.01 nM. […] The final concentration of DMSO in the assay is set at 0.05%.
(§4) BRAF and CRAF kinase reactions were carried out for a total of 2 hours at 30° C. and then stopped by 1/2 dilution in ADP-Glo Reagent (cat. No. V9102; Promega; part V912C). Reactions were then incubated for 1 h at room temperature before addition of one volume of Kinase Detection Reagent (cat. No. V9102; Promega; part V917A). Plates were then equilibrated at room temperature for 30 minutes before detection of luminescence on a Synergy Neo2 plate reader (Biotek). The effect of each compound dilution on BRAF and CRAF kinase activity was expressed as % inhibition and calculated as follows. First, the internal 100% inhibition control (average of luminescence in kinase reactions comprising kinase dead MEK1 substrate alone) was subtracted from each data point. The average of DMSO (vehicle) controls (set as 0% inhibition) was established and used to calculate % inhibition:
(§5) IC50 values were obtained by plotting the kinase inhibition values and fitting the dose-activity curves using a log(agonist) versus response—variable slope (four parameters) function using either GraphPadPrism (V7.0) or Dotmatics Screening Ultra platform. Standards included in the ARAF kinase assay were Belvarafenib (MedChem Express cat. No. HY-109080; CAS No. 1446113-23-0), LXH254 (MedChem Express cat. No. HY-112089; CAS No. 1800398-38-2) and BGB283 (cat. No. HY-18957; CAS No. 1446090-79-4).

BRAF = biological target: T2, BRAF (Homo sapiens, UniProt P15056); test: BRAF kinase activity assay (ADP-Glo); assay type: biochemical; details: 10 μM ATP, kinase-dead MEK1 substrate
T2 construct: GST; purchased Millipore Sigma B4062-10UG
T2 sequence (P15056 whole entry): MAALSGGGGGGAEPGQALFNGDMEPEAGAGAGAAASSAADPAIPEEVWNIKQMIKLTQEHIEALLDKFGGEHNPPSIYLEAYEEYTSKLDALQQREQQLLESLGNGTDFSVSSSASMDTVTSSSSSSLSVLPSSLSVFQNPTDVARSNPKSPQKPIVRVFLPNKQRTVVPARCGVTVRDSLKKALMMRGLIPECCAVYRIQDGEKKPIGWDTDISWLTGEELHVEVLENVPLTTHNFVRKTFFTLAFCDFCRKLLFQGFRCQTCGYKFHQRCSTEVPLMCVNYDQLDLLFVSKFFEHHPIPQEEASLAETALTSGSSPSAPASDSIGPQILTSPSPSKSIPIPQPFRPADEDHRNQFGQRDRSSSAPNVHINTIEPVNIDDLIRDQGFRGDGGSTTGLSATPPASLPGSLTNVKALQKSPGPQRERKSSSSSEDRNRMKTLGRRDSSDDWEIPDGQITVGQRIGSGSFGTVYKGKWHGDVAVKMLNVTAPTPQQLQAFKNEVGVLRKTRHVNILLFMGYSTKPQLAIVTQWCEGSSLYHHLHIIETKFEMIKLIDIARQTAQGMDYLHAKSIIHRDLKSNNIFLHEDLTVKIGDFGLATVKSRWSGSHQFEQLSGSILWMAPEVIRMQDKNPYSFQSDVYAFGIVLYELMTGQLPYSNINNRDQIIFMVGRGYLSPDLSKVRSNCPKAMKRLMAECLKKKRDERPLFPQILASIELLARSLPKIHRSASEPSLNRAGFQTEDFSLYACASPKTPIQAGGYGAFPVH
Experimental: as §1, §2, §3, §4, §5

Row | SMILES | pIC50 (pERK, HCT116 cells; Table 3) | pIC50 (CRAF; Table 3) | pIC50 (BRAF; Table 3) | pIC50 (pERK, HCT116 cells; Homo sapiens, HCT-116, Table 3) | pIC50 (pERK, HCT116 cells; Homo sapiens, HCT-116, Table 4) | pIC50 (CRAF; Table 4) | pIC50 (BRAF; Table 4) | HCT116 pERK (Ymin %) (pERK, HCT116 cells; Table 3)
1 | CS(=O)(=O)C1CCN(c2cccc3c2ncn3-c2nc3c(Nc4c(F)ccc(NS(=O)(=O)c5cccc(Cl)c5Cl)c4F)ncnc3s2)CC1 [Example 153] | > 6.30 | > 8.00 | 8.00 to 9.00 |  |  |  |  | −5%
2 | Cc1c(F)cccc1S(=O)(=O)Nc1ccc(F)c(Nc2ncnc3sc(-n4nc(C(=O)N(C)CCc5ccccn5)c5ccccc54)nc23)c1F [Example 25] | 5.00 to 6.00 | < 7.30 | < 8.00 |  |  |  |  | 2%
3 | O=S(=O)(Nc1ccc(F)c(Nc2ncnc3sc(-n4cnc5c(N6CCC7(CCOC7)CC6)cccc54)nc23)c1F)c1cccc(Cl)c1Cl [Example 146] | > 6.30 | < 7.30 | < 8.00 |  |  |  |  | −12%
4 | COc1ccc(S(=O)(=O)Nc2ccc(F)c(Nc3ncnc4sc(-n5cnc6c(N)cccc65)nc34)c2F)c(C)c1Cl [Example 13] | 5.00 to 6.00 | 7.30 to 8.00 | 8.00 to 9.00 |  |  |  |  | −14%
5 | Nc1ncccc1-c1cccc2c1ncn2-c1nc2c(Nc3c(F)ccc(NS(=O)(=O)c4cccc(Cl)c4Cl)c3F)ncnc2s1 [Example 134] | > 6.30 | 7.30 to 8.00 | 8.00 to 9.00 |  |  |  |  | −5%
6 | Cc1c(F)cccc1S(=O)(=O)Nc1ccc(F)c(Nc2ncnc3sc(-n4nc(C(=O)N5C6CCC5CN(C)C6)c5ccccc54)nc23)c1F [Example 42] | 6.00 to 6.30 | 7.30 to 8.00 | < 8.00 |  |  |  |  | 2%
7 | O=S(=O)(Nc1cc(F)c(F)c(Nc2ncnc3sc(-n4cnc5ccccc54)nc23)c1F)c1cccc(Cl)c1Cl [Example 159, N-[3-[[2-(benzimidazol-1-yl)thiazolo[5,4-d]pyrimidin-7-yl]amino]-2,4,5-trifluoro-phenyl]-2,3-dichloro-benzenesulfonamide] |  |  |  |  | > 6.30 | > 8.00 | 8.00 to 9.00 | 
8 | O=S(=O)(Nc1ccc(F)c(Nc2ncnc3sc(-n4cnc5c(N6CCC[C@H](O)C6)cccc54)nc23)c1F)c1cccc(Cl)c1Cl [Example 147] | > 6.30 | 7.30 to 8.00 | > 9.00 |  |  |  |  | −4%
9 | Cc1c(Cl)cccc1S(=O)(=O)Nc1ccc(F)c(Nc2ncnc3sc(-n4cnc5c(F)cccc54)nc23)c1F [Example 36] | 5.00 to 6.00 | 7.30 to 8.00 | 8.00 to 9.00 |  |  |  |  | −13%
10 | COCCN(C)C(=O)c1cn(-c2nc3c(Nc4c(F)ccc(NS(=O)(=O)c5cccc(F)c5C)c4F)ncnc3s2)c2ccccc12 [Example 43] | > 6.30 | > 8.00 | > 9.00 |  |  |  |  | 9%

Further lines, with some results ahead:

Row | pIC50 (pERK, HCT116 cells; Table 3) | pIC50 (CRAF; Table 3) | pIC50 (BRAF; Table 3) | pIC50 (pERK, HCT116 cells; Homo sapiens, HCT-116, Table 3) | pIC50 (pERK, HCT116 cells; Homo sapiens, HCT-116, Table 4) | pIC50 (CRAF; Table 4) | pIC50 (BRAF; Table 4) | SMILES | HCT116 pERK (Ymin %) (pERK, HCT116 cells; Table 3)
11 | > 6.30 | 7.30 to 8.00 | < 8.00 |  |  |  |  | CC(C)(O)C1CCCN1C(=O)c1cn(-c2nc3c(Nc4c(F)ccc(NS(=O)(=O)c5cccc(Cl)c5Cl)c4F)ncnc3s2)c2ccc(F)cc12 (centres unmarked) [Example 101] | 0%
12 | > 6.30 | > 8.00 | 8.00 to 9.00 |  |  |  |  | O=S(=O)(Nc1ccc(F)c(Nc2ncnc3sc(-n4cnc5c(C6(CO)CC6)cccc54)nc23)c1F)c1cccc(Cl)c1Cl [Example 143] | −8%
13 | > 6.30 | > 8.00 | 8.00 to 9.00 |  |  |  |  | O=C(c1cn(-c2nc3c(Nc4c(F)ccc(NS(=O)(=O)c5cccc(Cl)c5Cl)c4F)ncnc3s2)c2ccccc12)N1C2CCC1CC(O)C2 (centres unmarked) [Example 86] | 4%
14 |  | 7.30 to 8.00 | 8.00 to 9.00 | 5.00 to 6.00 |  |  |  | CN1CCN(S(=O)(=O)c2cn(-c3nc4c(Nc5c(F)ccc(NS(=O)(=O)c6cccc(Cl)c6Cl)c5F)ncnc4s3)c3ccccc23)CC1 [Example 12] | 
15 | > 6.30 | > 8.00 | 8.00 to 9.00 |  |  |  |  | NC(=O)c1cccc2c1ncn2-c1nc2c(Nc3c(F)ccc(NS(=O)(=O)c4cccc(Cl)c4Cl)c3F)ncnc2s1 [Example 123] | −11%
16 | 6.00 to 6.30 | > 8.00 | > 9.00 |  |  |  |  | O=C(c1cn(-c2nc3c(Nc4c(F)ccc(NS(=O)(=O)c5cccc(Cl)c5Cl)c4F)ncnc3s2)c2ccccc12)N1CCCC(O)C1 (centres unmarked) [Example 55] | −3%
17 | > 6.30 | 7.30 to 8.00 | 8.00 to 9.00 |  |  |  |  | O=C(c1cn(-c2nc3c(Nc4c(F)ccc(NS(=O)(=O)c5cccc(Cl)c5Cl)c4F)ncnc3s2)c2ccccc12)N1CC(C(F)F)C1 [Example 57] | 4%
18 | > 6.30 | 7.30 to 8.00 | 8.00 to 9.00 |  |  |  |  | CN(C1CCOC1)S(=O)(=O)c1cn(-c2nc3c(Nc4c(F)ccc(NS(=O)(=O)c5cccc(Cl)c5Cl)c4F)ncnc3s2)c2ccccc12 (centres unmarked) [Example 66] | −13%
19 | > 6.30 | 7.30 to 8.00 | < 8.00 |  |  |  |  | O=C(c1cn(-c2nc3c(Nc4c(F)ccc(NS(=O)(=O)c5cccc(Cl)c5Cl)c4F)ncnc3s2)c2ccccc12)N1CCC(O)(C(F)(F)F)CC1 [Example 97] | −10%
